Laboratory results taken from patent US20230000827A1, “INHIBITORS OF HSP70 PROTEIN” (INSERM (INSTITUTE NATIONAL DE LA SANTÉ ET DE LA RECHERCHE …, priority 2019, published 2023).

Assays:
HSP70/A18 interaction [1] = target: T1, HSP70/A18 interaction (Homo sapiens, UniProt P0DMV8); assay: AptaScreen high-throughput yeast two-hybrid dual luminescence screening of A18/HSP70 association; format: cell-based; conditions: for IC50: dose-response, inhibition of A18 binding to HSP70; for Confirmation inhibition: hit confirmation; for inhibition at 10 µM: molecules screened at 10 μM
T1 construct: expressed in transfected cells
Protocol: Table 1. High throughput screening of chemical agonists of the A18 peptide aptamer. The screening was based on the ability of the molecules to inhibit the association A18/HSP70.
A high-throughput screening assay, AptaScreen™ (developed by Aptanomics SA; (Baines I C et al. Drug Discov Today. 2006;11:334-341; Rerole A L, et al. Cancer Res 20119;71:484-495)) was performed by the Company Imaxio (Lyon, France) on a library of almost 60,000 small molecules. The AptaScreen™ assay is based on an automated dual luminescence (luc and ruc reporter genes) yeast two-hybrid assay, with HSP70 expressed as a ‘bait’ and A18 aptamer expressed as a ‘prey’. The HSP70/A18 interaction directs the transcription of the luc reporter gene, while in the same assay a control protein/aptamer couple directs the transcription of the ruc reporter. A small molecule can be considered as ‘hit candidate’ when it inhibits the interaction between HSP70 and A18 (i.e. decreases the luciferase signal), but not the control interaction (i.e. no or little change in the ruc signal). Molecules were screened at a concentration of 10 μM and then hit candidates were confirmed by dose-response assays, following the standard protocol (Rerole A L, et al. Cancer Res 20119;71:484-495).
A high-throughput screening assay, AptaScreen™ (developed by Aptanomics SA; ^22,23), was performed by the Company Imaxio (Lyon, France) on a library of almost 60,000 small molecules including most of the marketed drugs. The AptaScreen™ assay is based on an automated dual luminescence (luc and ruc reporter genes) yeast two-hybrid assay, with HSP70 expressed as a ‘bait’ and a peptide aptamer (A18), the inventors previously isolated that bound to the ATP domain of HSP70 expressed as a ‘prey’ (Rerole A L, et al. Cancer Res 20119;71:484-495). A small molecule can be considered as ‘hit candidate’ when it inhibits the interaction between HSP70 and A18 (i.e. decreases the luciferase signal). Molecules were screened at a concentration of 10 μM. Eight molecules (hit candidates) were initially identified. From the dose-response studies, three of them were retained on the basis of their specificity and high inhibitory activity against A18 binding to HSP70 (Table 1 and 2).

recombinant HSP70 = recombinant HSP70 (Homo sapiens, UniProt P0DMV8); assay: HSP70 chaperone activity, protein thermolability (aggregation) assay; format: biochemical; conditions: 1 μM, heat shock 55° C., 1 h, recombinant HSP70 10 ng
Protocol: FIG. 2: Small molecules hits A, B and C inhibit HSP70 chaperone activity. A) Protein aggregation was determined in the presence or absence of recombinant HSP70 (10 ng). When indicated A18 or molecules A, B and C were added (1 μM). B) Protein aggregation was determined in the presence or absence of recombinant HSP70, HSC70 or HSP90 (10 ng).
When indicated A18 or molecules A, B and C were added (1 μM). A0, a non-relevant peptide aptamer was used here as a negative control. Values are normalized for each HSP. 100% chaperone effect being the inhibition of protein aggregation induced by addition of the recombinant chaperones.
HSP70 chaperone activity was evaluated with a protein thermolability assay. HSF1−/− MEFs extracts were incubated 20 minutes on ice in lysis buffer (50 mM HEPES, 150 mM NaCl, 5 mM EDTA, 0.1% NP40) supplemented with protease inhibitors (Roche, France). […]
Cellular extracts, to which recombinant HSP70, HSP90 or HSC70 were added with or without the small molecules to test, were diluted to a final concentration of 2 mg. mL-1 in pH 7 Tris-HCl buffer and heated at 55° C. during 1 hour. After g−16,000 centrifugation at 4° C. during 10 minutes, supernatant native protein quantity was determined by Lowry method (Dc Assay Kits, Bio-Rad). This final protein concentration was then compared to the initial protein concentration in supernatants to quantify denatured proteins. […]

HSP70/A18 interaction [2] = target: T1, HSP70/A18 interaction; assay: Ability to block HSP70/A18 interaction (Biacore); format: binding; conditions: block of HSP70/A18 interaction; read-out: Activity profil/50% effective concentration (EC50)
Excerpt: Table 2. Selected “Hits” with high inhibitory activity against A18 binding to HSP70. Their chemical structure is shown as well as their ability to block HSP70/A18 interaction (Biacore).

[3] = system: Human cervix cancer Hela cells; assay: Chemo-sensitization to cisplatin, cell survival colorimetric assay, HeLa; format: cell-based; conditions: molecule 2 μM with cisplatin 25 μM, 48 h
Protocol: (§1) FIG. 3. The chemical molecule hits sensitize cancer cells to cisplatin. A) Human cervix HeLa or B) mouse colorectal cancer CT-26 cells were incubated during 48 h with cisplatin (25 μM) in the presence of absence of molecules A, B and C (2 μM). Cell survival was measured by a colorimetric assay staining.
(§2) 3.5×10^4 adherent cells were plated onto 24-well culture plates in complete medium. Cells were treated with small molecules at various concentrations (1 μM to 30 μM) for 4 hours to determine cellular IC50. Then, cells of half of each 24-well culture plates were treated with cisplatin (CDDP, 25 μM) for 48 hours. Cell death was measured by the crystal violet colorimetric assay staining.
(§3) To study the effect of the molecules in cancer cells, the inventors used two different cancer cells lines: Human cervix cancer Hela cells and mouse colorectal cancer CT-26. Cells were treated with the small molecule hit (2 μM) either alone or together with cisplatin for 48 hours and cell survival was determined. […] Cells seem to die mainly by apoptosis, as detected by the amount of Annexin V positive/propidium iodide negative cells obtained after treatment with the molecule (FIG. 5). The inventors conclude that the hit candidates block HSP70 chaperone activity and sensitize cancer cells to apoptosis induced by cisplatin.

[4] = system: mouse colorectal cancer CT-26; assay: Chemo-sensitization to cisplatin, cell survival colorimetric assay, CT-26; format: cell-based; conditions: CT-26, molecule 2 μM with cisplatin 25 μM, 48 h
Protocol: as §1, §2, §3

Solubility (statement) = format: physicochemical

T1 sequence (P0DMV8 whole entry): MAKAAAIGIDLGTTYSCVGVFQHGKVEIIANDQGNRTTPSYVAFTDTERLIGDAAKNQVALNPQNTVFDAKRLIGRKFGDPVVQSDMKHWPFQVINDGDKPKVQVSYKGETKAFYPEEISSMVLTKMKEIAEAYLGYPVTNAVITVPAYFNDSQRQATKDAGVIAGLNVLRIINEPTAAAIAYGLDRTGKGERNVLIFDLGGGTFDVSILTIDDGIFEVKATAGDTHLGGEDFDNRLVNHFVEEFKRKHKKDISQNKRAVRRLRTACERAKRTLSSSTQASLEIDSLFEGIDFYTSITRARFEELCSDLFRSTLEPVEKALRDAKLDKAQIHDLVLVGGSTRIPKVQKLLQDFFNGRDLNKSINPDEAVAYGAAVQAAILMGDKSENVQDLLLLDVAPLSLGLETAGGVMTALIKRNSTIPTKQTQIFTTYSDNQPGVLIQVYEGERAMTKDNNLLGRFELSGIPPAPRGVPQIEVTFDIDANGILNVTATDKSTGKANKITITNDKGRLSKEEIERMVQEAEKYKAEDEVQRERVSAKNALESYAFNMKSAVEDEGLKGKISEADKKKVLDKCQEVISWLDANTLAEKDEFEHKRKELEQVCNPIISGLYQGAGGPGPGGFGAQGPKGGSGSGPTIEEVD
recombinant HSP70, sequence (P0DMV8 whole entry): as above

| HSP70 specificity (HSP70/A18 interaction [1]) | IC50 (HSP70/A18 interaction [1]) [µM] | Confirmation inhibition (HSP70/A18 interaction [1]) | inhibition at 10 µM (HSP70/A18 interaction [1]) [%] | Inhibition of HSP70 chaperone activity (recombinant HSP70) | EC50 (HSP70/A18 interaction [2]) [µM] | Solubility (Solubility (statement)) | SMILES | Cell death induced by cisplatin [3] | Cell death induced by cisplatin [4] |
| --- | --- | --- | --- | --- | --- | --- | --- | --- | --- |
| YES | 19.6 | 34 | 105 | only partially blocked | 19.6 | – | O=C1N=C(N2CCCCC2)S/C1=C\c1ccccc1F [Molecule A] | – | – |
| YES | 0.2 | 59 | 105 | much more important inhibition | 0.2 | hardly soluble | CCOc1ccc(C)cc1S(=O)(=O)n1nnc2ccccc21 [Molecule B] | most important effect | most important effect |
